Active and inactive are the calls of the source.
How the values were obtained:
Hexokinase-1 = target: T1, Hexokinase-1 (Homo sapiens, UniProt P19367); experiment: SAR analysis of small molecule inhibitors of hexokinase domain containing I (HKDC1) in the hexokinase 1 selectivity assay. [Related pubchem assays (depositor defined):AID493160, AID493190]; type: functional
T1 sequence (P19367 whole entry): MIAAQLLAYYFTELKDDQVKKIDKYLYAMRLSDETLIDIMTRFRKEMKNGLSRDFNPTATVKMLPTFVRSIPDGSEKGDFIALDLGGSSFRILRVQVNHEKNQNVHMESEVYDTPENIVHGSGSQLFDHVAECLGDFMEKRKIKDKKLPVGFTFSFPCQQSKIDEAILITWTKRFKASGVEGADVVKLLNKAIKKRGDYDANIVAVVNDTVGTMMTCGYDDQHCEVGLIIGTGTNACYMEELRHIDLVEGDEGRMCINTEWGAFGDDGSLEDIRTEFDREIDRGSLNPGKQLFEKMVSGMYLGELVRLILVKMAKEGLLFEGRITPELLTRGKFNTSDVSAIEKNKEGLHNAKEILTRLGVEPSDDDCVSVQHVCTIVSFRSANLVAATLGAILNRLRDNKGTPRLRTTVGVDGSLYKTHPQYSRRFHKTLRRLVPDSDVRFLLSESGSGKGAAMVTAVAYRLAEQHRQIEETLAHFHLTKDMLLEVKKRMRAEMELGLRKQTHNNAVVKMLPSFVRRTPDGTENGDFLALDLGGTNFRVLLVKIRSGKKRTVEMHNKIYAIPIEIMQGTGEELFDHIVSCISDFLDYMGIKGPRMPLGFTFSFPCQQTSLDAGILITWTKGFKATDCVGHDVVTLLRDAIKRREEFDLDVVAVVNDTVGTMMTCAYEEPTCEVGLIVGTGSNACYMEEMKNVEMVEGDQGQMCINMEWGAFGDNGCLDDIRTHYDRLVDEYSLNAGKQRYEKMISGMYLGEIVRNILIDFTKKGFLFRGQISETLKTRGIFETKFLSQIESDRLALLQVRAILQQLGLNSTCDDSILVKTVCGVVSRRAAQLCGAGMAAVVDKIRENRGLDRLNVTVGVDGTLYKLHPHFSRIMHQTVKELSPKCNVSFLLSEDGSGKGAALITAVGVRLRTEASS

Hexokinase HKDC1 = target: T2, Hexokinase HKDC1 (Homo sapiens, UniProt Q2TB90); experiment: SAR analysis of small molecule inhibitors of hexokinase domain containing I (HKDC1). [Related pubchem assays (depositor defined):AID493160, AID493190]; type: functional
T2 sequence (Q2TB90 whole entry): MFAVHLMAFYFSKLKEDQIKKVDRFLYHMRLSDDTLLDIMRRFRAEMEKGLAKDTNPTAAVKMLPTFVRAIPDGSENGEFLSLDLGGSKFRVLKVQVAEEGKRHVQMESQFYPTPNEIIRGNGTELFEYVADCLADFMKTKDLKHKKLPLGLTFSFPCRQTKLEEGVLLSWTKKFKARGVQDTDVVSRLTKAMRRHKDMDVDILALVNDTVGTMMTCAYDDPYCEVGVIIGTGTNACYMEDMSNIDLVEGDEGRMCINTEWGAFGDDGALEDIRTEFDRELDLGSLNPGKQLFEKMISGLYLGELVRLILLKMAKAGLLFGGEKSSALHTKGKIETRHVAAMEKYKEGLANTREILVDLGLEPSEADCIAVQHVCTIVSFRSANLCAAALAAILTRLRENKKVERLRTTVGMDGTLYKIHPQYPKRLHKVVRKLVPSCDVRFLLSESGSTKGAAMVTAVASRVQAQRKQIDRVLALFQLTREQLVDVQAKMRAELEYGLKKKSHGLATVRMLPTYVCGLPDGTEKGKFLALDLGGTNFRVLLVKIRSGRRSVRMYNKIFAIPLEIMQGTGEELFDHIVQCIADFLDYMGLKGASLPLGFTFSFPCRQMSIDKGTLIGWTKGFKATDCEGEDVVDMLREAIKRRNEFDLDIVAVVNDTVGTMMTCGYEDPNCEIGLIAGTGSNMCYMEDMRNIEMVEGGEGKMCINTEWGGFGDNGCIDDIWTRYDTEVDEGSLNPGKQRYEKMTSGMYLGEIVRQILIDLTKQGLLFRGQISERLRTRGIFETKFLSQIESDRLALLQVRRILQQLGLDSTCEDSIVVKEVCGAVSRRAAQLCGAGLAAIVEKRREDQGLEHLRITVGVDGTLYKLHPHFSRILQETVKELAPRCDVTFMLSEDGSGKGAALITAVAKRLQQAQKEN

Insulin-degrading enzyme [1] = target: T3, Insulin-degrading enzyme (Homo sapiens, UniProt P14735); experiment: recombinant IDE activation, cell-free – biochemical, fluorescence polarization, counter-screen for IDE activator project, dose response (AID 588681)
T3 sequence (P14735 whole entry): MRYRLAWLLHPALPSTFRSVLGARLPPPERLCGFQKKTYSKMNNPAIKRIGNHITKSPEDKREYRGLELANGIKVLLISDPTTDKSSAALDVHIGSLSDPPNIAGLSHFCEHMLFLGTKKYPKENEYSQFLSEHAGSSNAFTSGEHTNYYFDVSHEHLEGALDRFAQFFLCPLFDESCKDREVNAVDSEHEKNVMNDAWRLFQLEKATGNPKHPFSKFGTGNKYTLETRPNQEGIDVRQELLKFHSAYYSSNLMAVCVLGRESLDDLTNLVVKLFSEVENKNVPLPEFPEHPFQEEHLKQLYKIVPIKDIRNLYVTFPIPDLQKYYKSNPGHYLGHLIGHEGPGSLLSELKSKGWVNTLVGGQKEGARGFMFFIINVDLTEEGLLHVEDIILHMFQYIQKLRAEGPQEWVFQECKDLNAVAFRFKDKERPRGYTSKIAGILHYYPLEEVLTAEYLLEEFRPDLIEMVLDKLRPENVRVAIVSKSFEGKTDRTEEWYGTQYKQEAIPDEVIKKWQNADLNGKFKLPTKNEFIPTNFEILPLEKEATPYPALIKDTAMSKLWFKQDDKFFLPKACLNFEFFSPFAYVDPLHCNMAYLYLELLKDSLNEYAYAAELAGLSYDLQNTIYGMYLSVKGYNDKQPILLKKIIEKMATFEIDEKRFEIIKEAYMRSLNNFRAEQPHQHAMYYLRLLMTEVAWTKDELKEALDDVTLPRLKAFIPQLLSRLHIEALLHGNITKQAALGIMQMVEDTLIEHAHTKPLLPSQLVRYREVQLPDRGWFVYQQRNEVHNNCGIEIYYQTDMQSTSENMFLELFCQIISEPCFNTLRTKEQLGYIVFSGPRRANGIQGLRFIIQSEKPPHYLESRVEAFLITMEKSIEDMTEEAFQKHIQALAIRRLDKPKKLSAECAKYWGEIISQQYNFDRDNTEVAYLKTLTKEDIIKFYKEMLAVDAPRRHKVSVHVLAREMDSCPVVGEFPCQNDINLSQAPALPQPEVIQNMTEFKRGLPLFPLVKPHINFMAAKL

Insulin-degrading enzyme [2] = target: T3, Insulin-degrading enzyme; experiment: cellular IDE activation of Abeta substrate cleavage – fluorescence polarization, HEK cells, dose response (AID 588439); type: functional, cell-based
HEK293 [3] = experiment: membrane integrity loss in HEK cells – cell-based, fluorescence, cytotoxicity control for IDE activator project, dose response (AID 588440); type: functional; conditions: Homo sapiens;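 further: cytotoxicity by LDH release measuring loss of membrane integrity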
HEK293 [4] = experiment: optical interference in Abeta FP readout, dose response, artefact control for IDE activator project, biochemical, fluorescence polarization (AID 588442); type: functional, cell-based; conditions: Homo sapiens
[5] = NIH-3T3 fibroblast cytotoxicity, dose response, cytotoxicity control, cell-based, fluorescence, Alamar Blue, secondary assay (AID 2327); type: functional;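 further: NIH-3T3 mouse fibroblasts cultured with fluconazole at 8 µg/mL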
[6] = fluconazole-exposed Candida albicans growth modulators – fluorescence, retest, confirmation (AID 2467); type: functional, cell-based
[7] = target: Serine/threonine-protein phosphatase (Candida dubliniensis (strain CD36 / CBS 7987 / NCPF 3949 / NRRLY-17841) (Yeast), UniProt B9W6M3); experiment: blockers of CaCl2-induced CDRE-lacZ signaling – S. cerevisiae, luminescence, secondary, dose response (AID 2388); type: functional, cell-based;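 further: yeast reporter cells carrying a calcineurin-responsive lacZ construct stimulated with calcium chloride; luminescent beta-galactosidase reporter signal in whole cells rather than isolated phosphatase activity; potency for inhibition where a drop in reporter signal means calcineurin blockade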
Sequence of Serine/threonine-protein phosphatase (B9W6M3 whole entry): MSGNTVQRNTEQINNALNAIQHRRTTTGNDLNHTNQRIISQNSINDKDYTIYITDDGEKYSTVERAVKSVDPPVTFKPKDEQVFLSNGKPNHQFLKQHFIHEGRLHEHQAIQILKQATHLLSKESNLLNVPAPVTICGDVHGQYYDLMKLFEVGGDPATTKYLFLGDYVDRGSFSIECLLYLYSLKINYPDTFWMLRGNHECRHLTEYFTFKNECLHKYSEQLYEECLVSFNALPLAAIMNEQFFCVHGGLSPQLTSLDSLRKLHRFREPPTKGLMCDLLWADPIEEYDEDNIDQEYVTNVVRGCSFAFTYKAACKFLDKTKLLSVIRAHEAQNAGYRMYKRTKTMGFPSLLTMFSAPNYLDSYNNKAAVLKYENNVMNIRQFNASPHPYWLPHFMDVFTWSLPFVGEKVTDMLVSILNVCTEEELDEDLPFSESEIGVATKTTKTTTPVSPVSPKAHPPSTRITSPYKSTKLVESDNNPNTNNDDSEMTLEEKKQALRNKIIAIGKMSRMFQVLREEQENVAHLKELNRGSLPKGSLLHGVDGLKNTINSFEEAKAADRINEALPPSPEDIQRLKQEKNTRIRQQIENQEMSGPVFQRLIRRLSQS

[8] = target: ATP-dependent molecular chaperone HSP82 (Candida albicans (strain WO-1) (Yeast), UniProt C4YTQ8); experiment: steroid-induced GRE reporter decrease in yeast – S. cerevisiae, luminescence, Hsp90 inhibitor project, dose response (AID 2400); type: functional, cell-based;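 further: beta-galactosidase luminescence from glucocorticoid response element reporter as proxy for Hsp90 function; inhibitor potency where signal loss means Hsp90 inhibition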
Sequence of ATP-dependent molecular chaperone HSP82 (C4YTQ8 whole entry): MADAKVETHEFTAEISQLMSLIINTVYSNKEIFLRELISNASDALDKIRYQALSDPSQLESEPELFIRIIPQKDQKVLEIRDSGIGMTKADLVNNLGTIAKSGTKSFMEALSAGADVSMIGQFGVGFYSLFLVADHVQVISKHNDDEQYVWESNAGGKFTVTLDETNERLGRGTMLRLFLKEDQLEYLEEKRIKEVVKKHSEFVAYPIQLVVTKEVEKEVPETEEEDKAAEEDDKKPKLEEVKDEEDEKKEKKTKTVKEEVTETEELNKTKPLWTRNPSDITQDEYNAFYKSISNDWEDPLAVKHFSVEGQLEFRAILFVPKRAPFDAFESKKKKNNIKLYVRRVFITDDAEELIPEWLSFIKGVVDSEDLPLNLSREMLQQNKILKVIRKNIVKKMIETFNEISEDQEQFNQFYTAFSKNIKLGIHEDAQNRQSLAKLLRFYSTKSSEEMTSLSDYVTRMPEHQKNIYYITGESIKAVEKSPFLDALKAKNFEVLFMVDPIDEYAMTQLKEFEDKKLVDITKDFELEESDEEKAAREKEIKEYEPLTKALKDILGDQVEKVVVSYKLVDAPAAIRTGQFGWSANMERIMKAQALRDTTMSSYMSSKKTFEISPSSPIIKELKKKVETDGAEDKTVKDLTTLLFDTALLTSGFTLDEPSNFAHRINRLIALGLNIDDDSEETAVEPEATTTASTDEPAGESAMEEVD

For `O=c1c2ccccc2nc(/C=C/c2cccnc2)n1Cc1ccc(F)cc1`, which IC50 (Hexokinase-1) is on record?
The IC50 was > 80 µM (inactive).

What about the IC50 (Hexokinase HKDC1) of the same compound?
Its IC50 is > 80 µM (inactive).

Which IC50 (Hexokinase-1) does the source give for `Cc1cc(C)c(S(=O)(=O)Nc2cc(SCCC(=O)O)c(O)c3ccccc23)cc1C` here?
Its IC50 is > 80 µM (inactive).

And the IC50 (Hexokinase HKDC1)?
The IC50 was 9.9 µM (active).

Which EC50 (Insulin-degrading enzyme [1]) does the source give for `NC(=O)Cn1cc(/C=N\NS(=O)(=O)c2ccc(Cl)cc2)c2ccccc21` here?
Its EC50 is > 54.7 µM (inactive).

And the EC50 (Insulin-degrading enzyme [2])?
Its EC50 is > 54.7 µM (inactive).

What about the IC50 (HEK293 [3]) of the same compound?
Its IC50 is > 89.1 µM (inactive).

What about the EC50 (HEK293 [4]) of the same compound?
The EC50 was > 55.9 µM (inactive).

With `N#Cc1cc(C#N)c(N2CCN(c3cccc(Cl)n3)CC2)nc1N` as the compound, how does the EC50 [5] read?
Its EC50 is > 150 µM (inactive).

And the EC50 [6]?
Its EC50 is 1.47 µM (active).

What about the EC50 [7] of the same compound?
Its EC50 is > 180 µM (inactive).

What about the EC50 [8] of the same compound?
Its EC50 is 23.7 µM (active).

— ChEMBL document CHEMBL1201862, “PubChem BioAssay data set” (2004)
